# In PubChem BioAssay AID2286 (Southern Research Specialized Biocontainment Screening …, 2010):
# Calls of active or inactive are those of the source.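 Rule for the calls: active = minimum cell viability of 80% or lower across the dose range, counted as toxic; inactive = minimum cell viability above 80%.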
# Experiment: MAGI-CCR5 and HeLa-R5-16 cytotoxicity, dose response, cytotoxicity control for HIV-1 fusion inhibitor project, cell-based, MAGI and MAGI-HeLa co-culture (AID 2286);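 note: cells exposed to compound for at least 64 h before ATP readout; 100% = median of DMSO vehicle wells with no ATP signal meaning 0%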
# Conditions: MAGI-CCR5 cells viability, CellTiter-Glo ATP luminescence; for minimum viability: measured here: MAGI minimum viability across doses
# [1] = MAGI-HeLa co-culture viability, at 50 µM, stronger effect = lower value
# [2] = at 6.25 µM, stronger effect = lower value
# [3] = at 1.56 µM, stronger effect = lower value
# [4] = at 12.5 µM, stronger effect = lower value
# [5] = at 3.13 µM, stronger effect = lower value
Structure (SMILES),viability [1] [%],viability (at 50 µM (top of the series)),"minimum viability (at 50 µM, stronger effect = lower value) [%]",further results
COc1cc(/C=C2\SC(=Nc3ccccc3)N(CCc3c[nH]c4ccccc34)C2=O)ccc1OC(C)C(=O)O (configuration not stated),103,–,–,viability (at 25 µM (top of the series)): 101% (inactive); minimum viability [2]: 95.5%
O=C1NC(=S)N(c2ccc(F)cc2)C(=O)/C1=C/c1ccco1,122,131% (inactive),–,minimum viability [3]: 105%
Cc1cc(N2C(=O)C(O)=C(C(=O)c3cc4ccccc4o3)C2c2ccc(Cl)cc2)no1 (configuration not stated),123,83.2% (inactive),83.2,–
Cc1cc(C)c2nc(N3C(=O)C(O)=C(C(=O)c4ccco4)C3c3ccco3)sc2c1 (configuration not stated),119,91.8% (inactive),91.8,–
CCS(=O)(=O)C1=NSC2=NC(=O)/C(=C\c3ccc(OS(=O)(=O)c4ccccc4)cc3)C(=N)N21,85.9,–,74.9,–
COc1cc(/C=C2/C(=O)NN(c3ccc(C)c(Cl)c3)C2=O)cc([N+](=O)[O-])c1O,103,107% (inactive),–,minimum viability [3]: 91.2%
CC(C)CS(=O)(=O)C1=NN2C(=N)/C(=C\c3ccc(OC(=O)c4ccco4)cc3)C(=O)N=C2S1,104,96.6% (inactive),–,minimum viability [4]: 85.6%
O=C(O)c1cccc2c(-c3ccccc3)c(-c3ccccc3)[nH]c12,128,93.1% (inactive),93.1,–
Cc1cc(N2C(=O)C(O)=C(C(=O)c3cc4ccccc4o3)C2c2cccc(Br)c2)no1 (configuration not stated),137,87.1% (inactive),–,"minimum viability (at 25 µM, stronger effect = lower value): 86.4%"
COc1cc(/C=C2\SC(=O)N(c3ccccc3Cl)C2=O)cc([N+](=O)[O-])c1O,85.2,–,50,–
CCS(=O)(=O)C1=NSC2=NC(=O)/C(=C\c3ccc(OS(=O)(=O)c4ccccc4)c(OC)c3)C(=N)N21,101,80.5% (inactive),80.5,–
COc1cc(/C=N/NS(=O)(=O)c2ccc3ccccc3c2)ccc1OCc1ccc(C(=O)O)cc1,115,93.7% (inactive),–,"minimum viability (at 25 µM, stronger effect = lower value): 85.7%"
CC1=C(C(=O)OC(C)C)C(c2ccc(Cl)cc2)n2c(s/c(=C\c3ccc(OCC(=O)O)cc3)c2=O)=N1 (configuration not stated),103,–,73.5,–
Cc1ccc(F)c(NC(=O)/C(C#N)=C(\O)c2ccc(C(C)(C)C)cc2)c1,101,–,76.4,–
O=C1NN(c2ccccc2)C(=O)/C1=C\c1cccc(OC(=O)c2cccs2)c1,103,85.1% (inactive),85.1,–
O=C(COc1cccc2ccccc12)Nc1ccc(Cl)cc1C(=O)O,86.1,–,67.5,–
O=C(O)CSc1cc(C(=O)c2cc(F)ccc2O)cn2c(=O)c3c(-c4ccccc4)csc3nc12,88,–,56.4,–
O=c1/c(=C\c2cc([N+](=O)[O-])cc([N+](=O)[O-])c2O)sc2nc3ccccc3n12,115,104% (inactive),–,minimum viability [2]: 97.5%
CCOC(=O)c1sc(N2C(=O)C(O)=C(C(=O)c3ccc(C)o3)C2c2cccc([N+](=O)[O-])c2)nc1C (configuration not stated),94.6,–,–,"minimum viability (at 25 µM, stronger effect = lower value): 63.8%"
CS(=O)(=O)C1=NSC2=NC(=O)/C(=C\c3ccc(OS(=O)(=O)c4ccccc4)cc3)C(=N)N21,89.2,–,–,viability (at 25 µM (top of the series)): 83.8% (inactive); minimum viability [4]: 83.1%
CC(Oc1ccc(Cl)cc1Cl)C(=O)Nc1ccc(S(=O)(=O)Nc2cnc3ccccc3n2)cc1 (configuration not stated),96.5,–,66.7,–
O=C(O)c1cc(-c2ccc(/C=N/Nc3ccc(Cl)cc3)o2)ccc1Cl,87.3,–,62,–
Cc1ccc(S(=O)(=O)/N=C2/NC(=O)/C(=C/c3cc([N+](=O)[O-])ccc3O)S2)cc1,99.3,86% (inactive),86,–
COc1ccc(-c2csc(NC(=O)CSc3nc(C)nc4sc(C(=O)O)c(C)c34)n2)cc1,109,99.7% (inactive),–,minimum viability [3]: 83.4%
COc1ccc(C(=O)Oc2ccc(/C=N/Nc3ccc(Cl)c(C(=O)O)c3)cc2OC)cc1,104,80.5% (inactive),80.5,–
O=C(O)c1ccc(Cl)c(S(=O)(=O)Nc2ccccc2C(=O)Nc2ccc(Cl)cc2)c1,92.9,82.6% (inactive),82.6,–
Cc1cc(C)cc(-n2cccc2/C=C2/C(=N)N3C(=NC2=O)SN=C3S(C)(=O)=O)c1,116,96.8% (inactive),96.8,–

Structure (SMILES),viability [1] [%],viability (at 50 µM (top of the series)),"minimum viability (at 50 µM, stronger effect = lower value) [%]",further results
N#Cc1c(-c2ccccc2)nc(SCC(=O)N2c3ccccc3Sc3ccccc32)[nH]c1=O,103,85.5% (inactive),–,minimum viability [3]: 83.6%
O=C(O)COc1ccccc1/C=N/NC(=O)CSc1nnc(SCc2cccc3ccccc23)s1,106,92.5% (inactive),–,minimum viability [2]: 86.9%
O=C(O)c1cc(NC(=O)c2ccc(Br)cc2)cc(NC(=O)c2ccc(Br)cc2)c1,118,103% (inactive),–,minimum viability [5]: 99.1%
O=C(Nc1ccc(Br)cc1C(=O)O)c1ccc2c(c1)C(=O)N(Cc1ccccc1)C2=O,101,105% (inactive),–,minimum viability [3]: 82.6%
O=C(O)c1ccc(/C=N/NC(=O)c2ccc(CN3c4cccc5cccc(c45)S3(=O)=O)cc2)cc1,93.3,85% (inactive),–,minimum viability [2]: 83.3%
O=C1N/C(=N\S(=O)(=O)c2ccccc2)S/C1=C\c1cc([N+](=O)[O-])ccc1O,107,93.8% (inactive),–,minimum viability [4]: 88.1%
COC(=O)c1sc(-c2ccc(C(C)(C)C)cc2)cc1NC(=O)c1ccccc1C(=O)O,111,–,73.7,–
CCOC(=O)c1c(N2C(=O)Nc3cc(Cl)c(Cl)cc3N2O)sc2c1CCCCC2,98.1,–,70.1,–
Cc1ccccc1N=C1NC(=O)/C(=C/c2cccn2-c2cccc(C(=O)O)c2)S1,90,94.2% (inactive),–,minimum viability [4]: 86.3%
O=C(O)c1ccccc1NS(=O)(=O)c1ccc(NNC(=S)Nc2ccc(OC(F)F)cc2)c([N+](=O)[O-])c1,86.2,101% (inactive),–,minimum viability [5]: 93%
Cc1ccc(-c2nn(-c3ccccc3)cc2/C=C2\SC(=S)N(CC(=O)O)C2=O)cc1,92.3,81.7% (inactive),–,"minimum viability (at 25 µM, stronger effect = lower value): 80.9%"
CCN1C(=O)/C(=C\c2ccc(-c3ccc([N+](=O)[O-])cc3OC)o2)SC1=Nc1cccc(C(=O)O)c1,106,88.3% (inactive),–,minimum viability [5]: 87.5%
CC(C)NC(=O)c1sc(=S)n2c1[nH]c(=O)c1ccc(C(=O)NCCc3ccc(Cl)cc3)cc12,104,–,55.2,–
CCOc1cc(Br)cc(C(c2c(C(=O)O)[nH]c3ccccc23)c2c(C(=O)O)[nH]c3ccccc23)c1O,100,87% (inactive),–,minimum viability [2]: 82.9%
O=C(O)CCN1C(=O)/C(=C\c2cccc(Oc3ccccc3)c2)SC1=S,90.5,87.3% (inactive),–,"minimum viability (at 25 µM, stronger effect = lower value): 86.3%"
O=C(O)COc1ccc(Br)cc1C(c1c(C(=O)O)[nH]c2ccccc12)c1c(C(=O)O)[nH]c2ccccc12,95.6,91.8% (inactive),–,"minimum viability (at 25 µM, stronger effect = lower value): 88%"
O=C(O)c1cc(N/N=C/c2ccc(-c3ccccc3)cc2)ccc1Cl,87.4,–,69.9,–
COc1ccc(NC(=O)c2c[nH]n3c(=O)cc(C4CCN(C(=O)OC(C)(C)C)CC4)nc23)cc1Cl,94.3,88.3% (inactive),88.3,–
O=C(N/N=C/c1c(O)n(C2CCCCC2)c(=S)[nH]c1=O)c1ccccc1O,84.7,–,64.3,–
CCOc1cc(/C=C2\SC(=S)N(C(C(=O)O)c3ccccc3)C2=O)ccc1O (configuration not stated),90.8,96.9% (inactive),–,minimum viability [5]: 85.8%
O=C(CN1C(=O)S/C(=C\C=C\c2ccccc2)C1=O)Nc1ccccc1C(=O)O,103,90.4% (inactive),–,minimum viability [4]: 83.6%
Oc1c(Br)cc(Br)c(/C=N/n2c(-c3ccccc3)n[nH]c2=S)c1Br,99.3,90.8% (inactive),90.8,–
Cc1ccc(NC(=O)COc2cccc(/C=C3\SC(=S)N(CCC(=O)O)C3=O)c2)cc1Cl,94,–,77,–
O=C(O)CN1C(=O)/C(=C\c2cc(Br)ccc2OCc2ccccc2Cl)SC1=S,112,106% (inactive),–,minimum viability [5]: 94.6%
CCOC(=O)c1sc(N2C(=O)C(O)=C(C(=O)c3ccco3)C2c2ccc([N+](=O)[O-])cc2)nc1C (configuration not stated),124,80.3% (inactive),80.3,–
CC1=C(C(=O)Nc2ccccc2)C(c2ccc(Cl)cc2)n2c(s/c(=C/c3cccc(OCC(=O)O)c3)c2=O)=N1 (configuration not stated),127,114% (inactive),–,minimum viability [5]: 104%
Cc1cccc(S(=O)(=O)Nc2nc3ccccc3nc2Nc2cccc(C(=O)O)c2)c1,100,88.6% (inactive),88.6,–
